Data on two molecules can be found in PMC8576818, “The ethoxycarbonyl group as both activating and protective group in N-acyl-Pictet–Spengler reactions using methoxystyrenes. A short approach to racemic 1-benzyltetrahydroisoquinoline alkaloids” (Beilstein Journal of Organic Chemistry, 2021).

Series [1] concerns the target T1, two-pore channel 2 (TPC2) (Homo sapiens, UniProt Q8NHX9, L11A/L12A).
T1 construct: gene TPCN2; human TPC2, C-terminally RFP-tagged, rerouted to the plasma membrane (hTPC2L11A/L12A)
Put plainly: fluo-4 Ca2+ FLIPR assay in HEK293 cells stably expressing hTPC2, stimulated with TPC2-A1-P or TPC2-A1-N. It counts as cell-based.

A further series addresses T2, P-glycoprotein (P-gp) (Homo sapiens, UniProt P08183).
T2 construct: gene ABCB1; P-glycoprotein overexpressing VCR-R CEM cells
Put plainly: calcein-AM retention by flow cytometry in VCR-R CEM cells at […]. It counts as cell-based.

T1 sequence (Q8NHX9 whole entry L11A/L12A): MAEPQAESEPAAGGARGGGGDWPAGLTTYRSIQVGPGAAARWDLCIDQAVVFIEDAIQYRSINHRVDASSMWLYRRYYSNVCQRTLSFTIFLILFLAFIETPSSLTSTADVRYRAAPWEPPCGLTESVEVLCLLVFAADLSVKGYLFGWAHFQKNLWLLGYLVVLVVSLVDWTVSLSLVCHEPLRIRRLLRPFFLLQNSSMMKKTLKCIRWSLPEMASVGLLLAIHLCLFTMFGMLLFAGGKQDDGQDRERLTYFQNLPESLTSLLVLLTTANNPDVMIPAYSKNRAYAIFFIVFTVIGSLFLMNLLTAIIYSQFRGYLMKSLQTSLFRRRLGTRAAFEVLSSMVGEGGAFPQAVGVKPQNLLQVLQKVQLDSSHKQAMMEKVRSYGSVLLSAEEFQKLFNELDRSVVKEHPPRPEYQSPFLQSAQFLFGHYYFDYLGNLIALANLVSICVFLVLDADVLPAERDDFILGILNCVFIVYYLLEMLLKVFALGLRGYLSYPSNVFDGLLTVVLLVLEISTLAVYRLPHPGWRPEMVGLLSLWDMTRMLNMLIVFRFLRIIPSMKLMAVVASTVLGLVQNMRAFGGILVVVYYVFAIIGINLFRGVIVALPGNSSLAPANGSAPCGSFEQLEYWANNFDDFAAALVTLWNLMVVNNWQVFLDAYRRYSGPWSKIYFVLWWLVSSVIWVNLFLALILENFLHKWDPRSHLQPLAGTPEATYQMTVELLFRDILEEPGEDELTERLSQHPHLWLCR
T2 sequence (P08183 whole entry): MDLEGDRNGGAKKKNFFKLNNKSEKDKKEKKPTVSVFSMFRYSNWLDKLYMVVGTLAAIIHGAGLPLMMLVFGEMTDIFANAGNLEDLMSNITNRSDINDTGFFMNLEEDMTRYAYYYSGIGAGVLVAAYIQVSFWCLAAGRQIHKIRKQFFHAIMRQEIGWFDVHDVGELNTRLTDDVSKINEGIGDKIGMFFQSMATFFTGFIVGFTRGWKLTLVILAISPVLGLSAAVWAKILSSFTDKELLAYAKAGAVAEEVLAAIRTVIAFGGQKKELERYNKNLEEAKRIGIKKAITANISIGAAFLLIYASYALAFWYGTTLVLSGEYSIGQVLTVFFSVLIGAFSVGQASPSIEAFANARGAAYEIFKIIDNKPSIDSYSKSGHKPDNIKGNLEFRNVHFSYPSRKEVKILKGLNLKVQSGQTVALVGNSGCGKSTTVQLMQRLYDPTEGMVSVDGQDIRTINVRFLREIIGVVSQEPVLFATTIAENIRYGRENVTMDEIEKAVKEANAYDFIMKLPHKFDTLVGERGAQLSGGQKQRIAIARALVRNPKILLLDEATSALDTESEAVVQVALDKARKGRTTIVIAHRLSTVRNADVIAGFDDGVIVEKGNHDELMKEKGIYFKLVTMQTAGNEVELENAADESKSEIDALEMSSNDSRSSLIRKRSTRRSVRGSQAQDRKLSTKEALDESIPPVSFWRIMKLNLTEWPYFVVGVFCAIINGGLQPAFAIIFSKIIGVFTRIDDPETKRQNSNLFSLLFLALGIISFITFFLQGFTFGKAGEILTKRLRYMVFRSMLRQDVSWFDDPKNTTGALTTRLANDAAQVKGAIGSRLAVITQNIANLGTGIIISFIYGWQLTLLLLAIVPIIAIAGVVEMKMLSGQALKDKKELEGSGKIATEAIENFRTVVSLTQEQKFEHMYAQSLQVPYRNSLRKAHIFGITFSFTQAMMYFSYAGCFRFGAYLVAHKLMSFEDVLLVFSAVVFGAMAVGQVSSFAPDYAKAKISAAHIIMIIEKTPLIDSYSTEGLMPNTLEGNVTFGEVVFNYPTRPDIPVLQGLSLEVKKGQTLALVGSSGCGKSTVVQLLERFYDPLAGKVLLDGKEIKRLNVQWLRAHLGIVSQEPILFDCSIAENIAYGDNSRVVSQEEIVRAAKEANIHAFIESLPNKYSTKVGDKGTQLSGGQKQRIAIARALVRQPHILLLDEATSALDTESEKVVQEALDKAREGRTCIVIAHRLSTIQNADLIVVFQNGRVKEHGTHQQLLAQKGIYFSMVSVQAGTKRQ

Consider `COc1ccc2cc1Oc1ccc(cc1)C[C@H]1c3c(cc4c(c3Oc3cc5c(cc3OC)CCN(C)[C@@H]5C2)OCO4)CCN1C` [cepharanthine], for which the IC50 in series [1] was 3.6/57 µM. `COc1ccc2cc1Oc1ccc(cc1)C[C@H]1c3cc(c(OC)cc3CCN1C)Oc1c(OC)c(OC)cc3c1[C@H](C2)N(C)CC3` [tetrandrine]: the IC50 in series [1] is reported as 31/21 µM. Also, the “calcein-AM retention by flow cytometry in VCR-R CEM cells at 10 μM” value at P-glycoprotein (P-gp) is “indicating no P-glycoprotein inhibition. Tetrandrine served as positive control (Figure 5C)”.
